Source: patent publication US5428158A, “2-substituted indane-2-mercaptoacetylamide derivatives useful as inhibitors of enkephalinase and ace” (Merrell Dow Pharmaceuticals Inc., priority 1993, dated 1995)
pKi: −log10 of the molar value.

What was measured:
[1] = biological target: T1, Enkephalinase (Rattus norvegicus, UniProt P07861); experiment: Enkephalinase inhibition, fluorometric, substrate dansyl-D-AlaGly(p-nitro)PheGly; type: biochemical; settings: 50 mM HEPES, pH 7.4, 25° C., 12 μM substrate; read-out: ENK, Ki
T1 construct: Enkephalinase is partially purified from rat kidney; from tissue; host or cells: rat kidney (microvilli fraction; Triton X-100 extract or proteolytic solubilisation, then Mono Q FPLC)
T1 sequence (P07861 1-750): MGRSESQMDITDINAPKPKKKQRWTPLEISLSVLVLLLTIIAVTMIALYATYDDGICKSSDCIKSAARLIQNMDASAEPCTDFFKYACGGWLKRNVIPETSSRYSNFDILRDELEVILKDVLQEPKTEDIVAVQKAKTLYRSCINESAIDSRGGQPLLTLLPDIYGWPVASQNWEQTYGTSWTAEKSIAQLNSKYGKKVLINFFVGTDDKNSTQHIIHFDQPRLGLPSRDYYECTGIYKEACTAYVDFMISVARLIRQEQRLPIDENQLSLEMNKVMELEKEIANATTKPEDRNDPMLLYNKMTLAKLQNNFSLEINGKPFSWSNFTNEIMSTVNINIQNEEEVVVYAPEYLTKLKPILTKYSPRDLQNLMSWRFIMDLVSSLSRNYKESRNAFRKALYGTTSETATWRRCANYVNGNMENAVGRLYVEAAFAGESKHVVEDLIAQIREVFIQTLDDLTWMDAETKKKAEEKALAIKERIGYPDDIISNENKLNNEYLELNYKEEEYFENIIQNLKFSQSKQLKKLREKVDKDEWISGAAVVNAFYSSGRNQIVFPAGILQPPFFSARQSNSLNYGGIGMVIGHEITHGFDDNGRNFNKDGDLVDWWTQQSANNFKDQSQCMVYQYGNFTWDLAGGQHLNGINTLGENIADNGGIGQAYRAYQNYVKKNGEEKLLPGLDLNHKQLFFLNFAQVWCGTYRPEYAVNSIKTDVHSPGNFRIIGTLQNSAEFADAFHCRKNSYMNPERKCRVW
Excerpt: Enkephalinase is partially purified from rat kidney. The enzyme is extracted from the microvilli fraction by using Triton X-100 according to the method of Malfroy and Schwartz [J. Biol. Chem. 259, 14365-14370 (1984)] or by using a proteolytic treatment according to the method of Almenoff and Orlowski [Biochem. 22 590-599 (1983)]. The enzyme is further purified by anio exchange chromatography (Mono Q™ column, Pharmacia) using a Pharmacia FPLC system. The enzyme activity may be measured by the fluorometric methods of Florentin et al. [Anal. Biochem. 141, 62-69 (1984 ) ] or of Almenoff and Orlowski [J. Neurochemistry 42,151-157 (1984)]. […] The substrate (and inhibitor) is added from a concentrated stock solution in DMSO (up to 0.1 mL DMSO final volume). The enzyme in a small volume (approximately 0.1 μg of FPLC purified protein) is added to initiate the reaction and the rate of fluorecense increase is recorded continuously using a fluorometer (excitation at 339 nm, emission at 562 nm).
(§1) The results of the analysis of enzymatic activity as described in Table 1 indicate that the compounds of the present invention are inhibitors of enkephalinase as well as inhibitors of ACE.

[2] = biological target: ACE (Homo sapiens, UniProt P12821); experiment: ACE inhibition, spectrophotometric substrate; type: biochemical
Sequence of ACE (P12821 30-1306, species assumed): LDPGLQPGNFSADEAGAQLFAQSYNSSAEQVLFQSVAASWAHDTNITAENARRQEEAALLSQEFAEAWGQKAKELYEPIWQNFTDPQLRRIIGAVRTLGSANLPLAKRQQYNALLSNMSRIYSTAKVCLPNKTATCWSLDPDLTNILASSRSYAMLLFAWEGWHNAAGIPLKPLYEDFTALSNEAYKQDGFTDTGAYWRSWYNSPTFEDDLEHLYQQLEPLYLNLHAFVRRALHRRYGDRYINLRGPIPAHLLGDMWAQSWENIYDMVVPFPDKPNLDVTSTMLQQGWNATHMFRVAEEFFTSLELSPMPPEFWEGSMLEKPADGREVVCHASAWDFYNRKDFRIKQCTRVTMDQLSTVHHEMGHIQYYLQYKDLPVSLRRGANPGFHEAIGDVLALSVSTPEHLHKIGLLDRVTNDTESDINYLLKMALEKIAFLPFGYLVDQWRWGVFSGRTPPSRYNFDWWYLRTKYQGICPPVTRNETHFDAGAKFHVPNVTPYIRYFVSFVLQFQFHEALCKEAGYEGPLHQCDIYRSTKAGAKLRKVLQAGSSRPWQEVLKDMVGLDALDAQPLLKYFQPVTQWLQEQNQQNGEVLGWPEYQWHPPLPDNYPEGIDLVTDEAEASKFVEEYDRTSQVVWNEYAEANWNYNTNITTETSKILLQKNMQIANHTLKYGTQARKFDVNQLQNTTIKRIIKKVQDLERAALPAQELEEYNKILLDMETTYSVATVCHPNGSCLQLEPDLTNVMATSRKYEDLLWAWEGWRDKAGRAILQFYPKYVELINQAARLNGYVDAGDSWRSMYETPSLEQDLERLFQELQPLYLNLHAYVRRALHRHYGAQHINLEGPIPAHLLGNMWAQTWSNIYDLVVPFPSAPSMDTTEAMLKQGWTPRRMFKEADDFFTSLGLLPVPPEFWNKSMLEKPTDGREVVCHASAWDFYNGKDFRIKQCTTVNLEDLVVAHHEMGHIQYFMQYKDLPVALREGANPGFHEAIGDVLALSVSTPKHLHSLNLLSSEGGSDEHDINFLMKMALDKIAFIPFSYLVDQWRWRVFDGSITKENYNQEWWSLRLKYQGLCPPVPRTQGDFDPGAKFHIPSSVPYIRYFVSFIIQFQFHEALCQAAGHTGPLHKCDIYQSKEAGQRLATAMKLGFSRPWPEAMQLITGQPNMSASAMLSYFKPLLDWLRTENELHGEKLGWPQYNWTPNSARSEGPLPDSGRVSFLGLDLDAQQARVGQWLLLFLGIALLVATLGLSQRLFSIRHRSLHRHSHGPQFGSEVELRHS
Excerpt: The enzymatic activity of ACE is monitored using the spectrophotometric substrate described by Holmquist et al. [Anal. Biochem. 95, 540-548 (1979)]and the buffer system described by Ryan [Methods of Enzymatic Analysis, 3rd ed., H. U. Bergmeyer, editor; vol. V, Verlag Chemie, Weinheim, 1983, pp. 20-34].
as §1

[3] = tested on: myointimal proliferation; settings: after vascular injury; Davis et al. 1992; cited from earlier work

Row | SMILES | pKi [1] | pKi [2] | myointimal proliferation [3]
1 | CC(C)(S)C(=O)N[C@H]1Cc2ccccc2[C@H]2CCC[C@@H](C(=O)O)N2C1=O [101,069, [4S-[4α, 7α(R*), 12bβ]]-7-[(2-Thio-1-oxo-2-methyl)-2-propylamino]-1,2,3,4,6,7,8,12b-octahydro-6-oxopyrido[2,1-a][2]benzazepine-4-carboxylic acid] | 8.40 | < 8.15 | –
2 | O=C(O)[C@@H]1CCC[C@@H]2c3ccccc3C[C@H](NC(=O)C3(S)CCCC3)C(=O)N21 [102,769, [4S-[4α, 7α(R*), 12bβ]]-7-[(1-Thio-1-oxocyclopentane)methylamino]-1,2,3,4,6,7,8,12b-octahydro-6-oxopyrido[2,1-a][2]benzazepine-4-carboxylic acid] | > 9.70 | > 8.15 | –
3 | CCOC(=O)[C@H](CCSC)NC(=O)[C@@H](CSC(C)=O)Cc1ccccc1C [SCH42495] | – | – | prevent myointimal proliferation after vascular injury

The next lines start with results.

Row | pKi [1] | pKi [2] | SMILES | myointimal proliferation [3]
4 | 9.10 | < 6.60 | O=C(O)[C@@H]1CCC[C@@H]2c3ccccc3C[C@H](NC(=O)C3(CCS)Cc4ccccc4C3)C(=O)N21 [100,273, [4S-[4α, 7α(R*), 12bβ]]-7-[(2-(2-mercaptoethyl)-2-oxoindan)methylamino]1,2,3,4,6,7,8,12b-octahydro-6-oxopyrido[2,1-a][2]benzazepine-4-carboxylic acid] | –
5 | > 9.70 | > 7.35 | O=C(O)[C@@H]1CCC[C@@H]2c3ccccc3C[C@H](NC(=O)C3(S)Cc4ccccc4C3)C(=O)N21 [102,708, [4S-[4α, 7α(R*), 12bβ]]-7-[(2-Thio-2-oxoindan)methylamino]-1,2,3,4,6,7,8,12b-octahydro-6-oxopyrido[2,1-a][2]benzazepine-4-carboxylic acid] | –
6 | > 9.70 | > 6.30 | O=C(O)[C@@H]1CCC[C@@H]2c3ccccc3C[C@H](NC(=O)C3(CS)Cc4ccccc4C3)C(=O)N21 [100,346, [4S-[4α, 7α(R*), 12bβ]]-7-[(2-Mercaptomethyl-2-oxoindan)methylamino]-1,2,3,4,6,7,8,12b-octahydro-6-oxopyrido[2,1-a][2]benzazepine-4-carboxylic acid] | –
